Experimental data from paper PMC8140105 (Scientific Reports, 2021).

Columns and labels:
[1] = tested on: Caco-2 monolayer; experiment: Caco-2 assay (apparent permeability); type: in vitro ADME
Procedure: Caco-2 (Sigma-Aldrich, Diegem, Belgium) cells were grown in DMEM supplemented with 10% FBS, 1% NEAA and 1% penicillin/streptomycin solution. A total of 3 × 10^5 cells per filter were seeded in a 12-well plate and left for differentiation during 21–29 days (medium change every other day). Monolayer formation was checked by measuring the TEER values which should be above 0.30 kΩ × cm^2 [72]. After washing with Hank’s balanced salt solution, 400 µL of a 1 µM peptide solution was added to the apical side of the filter. After 30, 60, 90 and 120 min, 100 µL of the acceptor compartment was taken for UPLC-MS/MS analysis (Supplementary method S2). Linear curve fitting was used to calculate the apparent permeability coefficient (Papp), as sink conditions were achieved.
The reduction in acceptor concentration was also taken into account after every sampling. The cumulative amount in the acceptor compartment is defined as:2 Cumulativeamount=CrnVr+∑k=1n-1CrkVs with Crk = concentration at sample point k in acceptor compartment; Vr = volume in the receiver chamber; Vs = volume sampled; n = times sampled. […]
Supplementary method S2: UPLC-MS parameters Caco-2 assay
Aliquots of the acceptor compartment are analyzed using the following validated UPLC-
Column Acquity UPLC BEH C18 (2.1 × 100 mm, 1.7 µm) protected with a suitable guard
Sample temperature: 10°C.
A: 93/2/5 (v/v) H2O + ACN + DMSO + 0.1% FA
B: 2/93/5 (v/v) H2O + ACN + DMSO + 0.1% FA
Table 1: Quantifier of PapRIV.
Peptide Mother ion Daughter ion Collision energy MS
Injection volume: 10.0 µL
Table 2: Gradient program
Time (min) Mobile phase A (%) Mobile phase B (%)

[2] = tested on: BV-2 microglia cells; experiment: MTT viability of BV-2 microglia cells; type: cell-based, murine
[3] = Chemical and protease-inactivated homogenate stability; type: in vitro ADME, ICR-CD-1 mice; conditions: for Remaining amount of PapRIV: 1 hour at 37°C
Procedure: The metabolization rate of the peptide varied between different biological matrices such as serum, brain tissue, liver tissue, kidney tissue and faeces. […] Different metabolites of the peptide could be identified. To exclude the possibility of non-enzymatic degradation, the chemical and protease-inactivated homogenate (by pre-heating the homogenate for 5 min at 95 °C) stability of the peptide was determined. Except for kidney tissue, PapRIV remained stable in protease-inactivated homogenates, pointing an enzymatic degradation in serum, liver, brain and faeces (Supplementary Table S1). In protease-inactivated kidney homogenate, approximately 45% of peptide loss after 60 min can be explained by protein interaction with some kidney specific proteins. In serum, six different metabolites were formed. The MS-spectra of the different metabolites formed and the metabolic profiles in different tissues are given in supplementary information (Supplementary Figs. S6, S7). DLPFEH is the main metabolite which is formed in all matrices, metabolization of the native peptide to this metabolite is the main contributor of the low half-lives observed in kidney tissue and serum (Supplementary Fig. S5). Also in faeces, the matrix in which PapRIV is produced by gut bacteria, metabolization to DLPFEH occurred.
Supplementary method S3: Tissue homogenate preparation
Preparation of Krebs-Henseleit buffer (pH 7.4) (KH-buffer)
The powdered medium was dissolved in 900 mL water while stirring. To this solution, 0.3790 g CaCl2×2H2O and 2.098 g NaHCO3 was subsequently added while stirring. NaOH or HCl was used to adjust to pH 7.4. This solution was then further diluted to 1000 mL using ultrapure […]
Preparation of tissue homogenates
- The liver (n = 1), kidneys (n = 6), brains (n = 3), colons (n = 4) and faeces (0.196 g) of ICR-CD-1 mice were collected.
- After cleaning and rinsing the tissues using ice-cold KH buffer, the tissues were cut in little pieces and transferred into a 50 mL tube to which 36 mL ice-cold KH buffer was added.
- The tissues were then homogenized with at tissue homogenizer.
- After the larger particles were allowed to settle for about 30 minutes at 5°C, approximately 25 mL of the middle layer was transferred into a 50 mL Falcon tube using a plastic pipette.
- After shaking the homogenates, the homogenates were dispensed into 2 mL Eppendorf tubes, and stored at -35°C until use.
- The protein content of the homogenates were determined using the Pierce Modified Lowry […]
- Just before use, the homogenates were diluted to a protein concentration of 0.6 mg/mL (i.e.
300 µg / 500 µL) with KH buffer.
- Into a 1.5 ml Protein LoBind tube, 900 µl of serum/tissue extract (500 µl of homogenate/serum and 400 µl of KH buffer, pH 7.4) was transferred.
- After temperature-equilibration at 37°C for 15 min while shaking at 750 rpm, 100 µl of peptide solution (0.1 mg/mL) was added followed by continued incubation at 37°C (while shaking), with […] aliquots taken after 0, 5, 10, 30 and 60 minutes.
- The aliquots were immediately transferred into 500 µl Protein LoBind Eppendorf tubes containing 100 µl of 1% V/V trifluoroacetic acid solution in water, heated for 5 minutes at 95°C, and cooled for 30 minutes in an ice-bath.
- The samples were then centrifuged at 16,000 g for 5 minutes at 5°C.
- The supernatants was then analyzed by UPLC-UV/MS.
Supplementary table S1: Chemical and protease-inactivated homogenate stability of PapRIV […]
Matrix Remaining amount of PapRIV (%)

## SDLPFEH [PapRIV, heptapeptide (SDLPFEH) quorum sensing peptide originating from the Bacillus cereus group; synthetic, purchased from GL Biochem]
[1]; Caco-2, 4 °C, compared with Papp at 37 °C, n = 6 (Supplementary Fig. S1)
  Papp at 4 °C: comparable
[1]; Caco-2, apical to basolateral, 1 µM peptide (400 µL) after washing with Hank's balanced salt solution, cells differentiated 21–29 days, TEER above 0.30 kΩ × cm^2, acceptor sampled 30, 60, 90, 120 min, 37 °C, UPLC-MS/MS, linear fit, n = 6
  Papp: 1.37 ± 0.21 × 10^–9 cm/s
[1]; Caco-2, basolateral to apical, compared with apical-basolateral Papp, n = 6 (Supplementary Fig. S1)
  Papp in the opposite basolateral-apical direction: comparable
[1]; Caco-2 assay, 1 µM, 120 min
  mass balance: < 2%
[2]; 25 µM treatment, non-significant decrease
  viability of BV-2 microglia cells: 94.8%
[2]; MTT, up to 25 µM
  toxic effects towards BV-2 microglia cells: no significant toxic effects
[3]; Inactivated brain homogenate (pre-heated 5 min at 95 °C)
  Remaining amount of PapRIV: 101.0%
[3]; Inactivated colon homogenate (pre-heated 5 min at 95 °C)
  Remaining amount of PapRIV: 99.2%
[3]; Inactivated faeces homogenate (pre-heated 5 min at 95 °C)
  Remaining amount of PapRIV: 101.4%
[3]; Inactivated kidney homogenate (pre-heated 5 min at 95 °C)
  Remaining amount of PapRIV: 53.8%
[3]; Inactivated liver homogenate (pre-heated 5 min at 95 °C)
  Remaining amount of PapRIV: 101.6%
[3]; Inactivated serum (pre-heated 5 min at 95 °C)
  Remaining amount of PapRIV: 99.0%
[3]; KH-buffer (Krebs-Henseleit, pH 7.4), chemical stability
  Remaining amount of PapRIV: 99.8%
[3]; protease-inactivated kidney homogenate, after 60 min, explained by protein interaction
  peptide loss: approximately 45%
